Data from PubChem BioAssay (NCI).
Values joined by “and” are separate entries in the source; they are usually repeats but may differ in a detail not shown here. Identical values can stand only once.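 Exposure lasted 48 hours, with cells grown in 96-well plates and compounds tested at five concentrations. GI50 is the concentration that inhibits growth by half. Definition used: TGI = concentration required for complete inhibition of growth.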

Assays:
Assay in all cases: inhibition of tumour cell growth, NCI panel, 48 h
[1] = test system: U251 CNS
[2] = test system: BT-549 breast
[3] = test system: HCT-15 colon
[4] = test system: IGROV1 ovarian
[5] = test system: MCF7 breast
[6] = test system: SN12C renal
[7] = test system: SNB-19 CNS
[8] = test system: COLO 205 colon
[9] = test system: NCI-H522 lung
[10] = test system: SK-MEL-5 melanoma

CCc1c2c(nc3ccc(OC(=O)OCc4ccc(B5OC(C)(C)C(C)(C)O5)cc4)cc13)-c1cc3c(c(=O)n1C2)COC(=O)[C@]3(O)CC
GI50 [1]: < 0.01 µM | TGI [1]: > 34.3 µM | GI50 [2]: < 0.0291 µM | TGI [2]: 1.51 µM | GI50 [3]: 0.127 µM | TGI [3]: > 100 µM | GI50 [4]: 0.1 µM | TGI [4]: 3.48 µM | GI50 [5]: < 0.01 µM | TGI [5]: > 100 µM | GI50 [6]: < 0.01 µM | TGI [6]: > 54.7 µM | GI50 [7]: < 0.01 µM | TGI [7]: > 100 µM | GI50 [8]: 0.0804 µM | TGI [8]: 24.5 µM | GI50 [9]: 0.0196 µM | TGI [9]: 14.2 µM | GI50 [10]: 0.0217 µM | TGI [10]: 0.118 µM

CN(CO)c1nc(N(C)CO)nc(N(C)CO)n1
GI50 [1]: 29.6 µM | TGI [1]: 72.8 µM and 46.2 µM | TGI [2]: 43.1 µM and 36.9 µM | GI50 [3]: 25.8 µM | TGI [3]: 65.5 µM and 37.1 µM | GI50 [4]: 16.1 µM | TGI [4]: 67.1 µM and 79.1 µM | GI50 [5]: 32 µM | TGI [5]: 99.1 µM and 56.4 µM | GI50 [6]: 27.6 µM and 19.5 µM | TGI [6]: 70.5 µM and 57.8 µM | GI50 [7]: 29.8 µM | TGI [7]: 45.3 µM and 50.4 µM | GI50 [8]: 20.9 µM | TGI [8]: 44.1 µM and 20.9 µM | TGI [9]: 43.9 µM and 53.7 µM | GI50 [10]: 18.1 µM | TGI [10]: 32.2 µM and 33.8 µM

CCCCCCCCCCCCSC1=CC(=O)C=CC1=O
GI50 [1]: 0.311 µM | TGI [1]: 4.57 µM | GI50 [2]: 1.34 µM | TGI [2]: 4.57 µM | GI50 [3]: 1.92 µM | TGI [3]: > 32.4 µM | GI50 [4]: 1.06 µM | TGI [4]: 3.22 µM | GI50 [5]: 2.22 µM | TGI [5]: > 50 µM | GI50 [6]: 3.24 µM | TGI [6]: 24.7 µM | GI50 [7]: 1.69 µM | TGI [7]: > 28.6 µM | GI50 [8]: 20.9 µM | TGI [8]: > 36.2 µM | GI50 [9]: 0.191 µM | TGI [9]: 0.763 µM | GI50 [10]: 5.54 µM | TGI [10]: 14.3 µM

CC[C@H](C)C(=O)O[C@H]1CCC=C2C=C[C@H](C)[C@H](CC[C@@H]3C[C@@H](O)CC(=O)O3)[C@H]21
GI50 [1]: 1.13 µM | TGI [1]: > 100 µM | GI50 [2]: 14.4 µM | TGI [2]: > 78.5 µM | GI50 [3]: 2.52 µM | TGI [3]: > 100 µM | GI50 [4]: 5 µM | TGI [4]: > 100 µM | GI50 [5]: > 42.5 µM | TGI [5]: > 100 µM | GI50 [6]: 3.88 µM | TGI [6]: > 100 µM | GI50 [7]: 3.54 µM | TGI [7]: > 100 µM | TGI [8]: 82 µM | GI50 [9]: 2.41 µM | TGI [9]: 39.6 µM | GI50 [10]: 3.39 µM | TGI [10]: 13.6 µM

CCCn1cc(/C=N\N=C2\C(=O)Nc3ccc(C)cc32)c2ccccc21
GI50 [1]: 3.51 µM | TGI [1]: 17.3 µM | GI50 [2]: 1.79 µM | TGI [2]: 6.33 µM | GI50 [3]: 2.63 µM | TGI [3]: 42.2 µM | GI50 [4]: 3.38 µM | TGI [4]: 63.1 µM | GI50 [5]: 1.54 µM | TGI [5]: 15.5 µM | GI50 [6]: 3.2 µM | TGI [6]: 75.9 µM | GI50 [7]: 4.24 µM | TGI [7]: > 100 µM | GI50 [8]: 1.25 µM | TGI [8]: 3.06 µM | GI50 [9]: 1.81 µM | TGI [9]: 6.59 µM | GI50 [10]: 2.86 µM | TGI [10]: 13.5 µM

C#Cc1cccc(Nc2ncnc3ccc(-c4cnc(N)nc4)cc23)c1
GI50 [1]: 3.18 µM | TGI [1]: 16.9 µM | GI50 [2]: 2.07 µM | TGI [2]: 9.37 µM | GI50 [3]: 2.55 µM | TGI [3]: 13.2 µM | GI50 [4]: 0.183 µM | TGI [4]: 2.26 µM | GI50 [5]: 1.8 µM | TGI [5]: 12.2 µM | GI50 [6]: 1.81 µM | TGI [6]: 12.7 µM | GI50 [7]: 3.15 µM | TGI [7]: 21.5 µM | GI50 [8]: 2.99 µM | TGI [8]: 13.8 µM | GI50 [9]: 2.11 µM | TGI [9]: 11.8 µM | GI50 [10]: 3.34 µM | TGI [10]: 12.5 µM

COc1ccc(C(=O)/C=C/c2c(C(F)(F)F)nc3ccccn23)cc1OC
GI50 [1]: 1.1 µM | TGI [1]: > 100 µM | GI50 [2]: 2.34 µM | TGI [2]: 43.4 µM | GI50 [3]: 1.57 µM | TGI [3]: > 100 µM | GI50 [4]: 0.508 µM | TGI [4]: 3.41 µM | GI50 [5]: 0.518 µM | TGI [5]: > 100 µM | GI50 [6]: 3.53 µM | TGI [6]: > 100 µM | GI50 [7]: 3.77 µM | TGI [7]: > 22 µM | GI50 [8]: 1.86 µM | TGI [8]: 3.95 µM | GI50 [9]: 0.133 µM | TGI [9]: 0.929 µM | GI50 [10]: 2.1 µM | TGI [10]: 20.1 µM

O=[N+]([O-])c1cc(C(F)(F)F)cc2n[se]nc12
TGI [1]: 29.5 µM | TGI [2]: 7.52 µM | TGI [3]: 5.59 µM | TGI [4]: 14.6 µM | TGI [5]: 4.07 µM | TGI [6]: 10.6 µM | TGI [7]: 29.5 µM | TGI [8]: 4.21 µM | TGI [9]: 6.54 µM | TGI [10]: 8.02 µM

CC(C)c1ccc(C(O)(C(=O)O)c2ccc(C(C)C)cc2)cc1
TGI [1]: 42.9 µM | TGI [2]: > 100 µM | TGI [3]: > 100 µM | TGI [4]: > 100 µM | TGI [5]: > 100 µM | TGI [6]: > 100 µM | TGI [7]: > 100 µM | TGI [8]: > 100 µM | TGI [9]: > 100 µM | TGI [10]: > 100 µM

N#Cc1ccc(O)c(C2=NCC(c3ccc(-c4ccccc4)cc3)O2)c1 (configuration not stated)
GI50 [1]: 0.326 µM | TGI [1]: 11.6 µM | GI50 [2]: 1.37 µM | TGI [2]: 16.1 µM | GI50 [3]: 0.0896 µM | TGI [3]: 20.4 µM | GI50 [4]: 0.478 µM | TGI [4]: 14.3 µM | GI50 [5]: 0.343 µM | TGI [5]: 11.8 µM | GI50 [6]: 0.606 µM | TGI [6]: 16.9 µM | GI50 [7]: 0.489 µM | TGI [7]: 26.4 µM | GI50 [8]: 0.349 µM | TGI [8]: 14.8 µM | GI50 [9]: 0.4 µM | TGI [9]: 10.6 µM | GI50 [10]: 0.532 µM | TGI [10]: 2.28 µM

COc1cc2c(cc1OC)-c1c(c3ccc([N+](=O)[O-])cc3c(=O)n1CCCN=[N+]=[N-])C2=O
GI50 [1]: 11.6 µM | TGI [1]: > 100 µM | GI50 [2]: > 100 µM | TGI [2]: > 100 µM | GI50 [3]: > 100 µM | TGI [3]: > 100 µM | GI50 [4]: 7.5 µM | TGI [4]: > 100 µM | GI50 [5]: 0.556 µM | TGI [5]: > 100 µM | GI50 [6]: 46.7 µM | TGI [6]: > 100 µM | GI50 [7]: > 100 µM | TGI [7]: > 100 µM | GI50 [8]: > 100 µM | TGI [8]: > 100 µM | GI50 [9]: 11.7 µM | TGI [9]: > 100 µM | GI50 [10]: 42.6 µM | TGI [10]: > 100 µM

CCCCNP1(NCCCC)=NP(NCCCC)(NCCCC)=NP(NCCCC)(NCCCC)=NP(NCCCC)(NCCCC)=N1
GI50 [1]: 0.296 µM | TGI [1]: 3.81 µM | GI50 [2]: 4.08 µM | TGI [2]: 15.3 µM | GI50 [3]: 21.2 µM | TGI [3]: 99.5 µM | GI50 [4]: 0.584 µM | TGI [4]: 11.6 µM | GI50 [5]: 0.356 µM | TGI [5]: 3.52 µM | GI50 [6]: 0.331 µM | TGI [6]: 12.5 µM | GI50 [7]: 1.12 µM | TGI [7]: 27.9 µM | GI50 [8]: 0.301 µM | TGI [8]: 0.848 µM | GI50 [9]: 0.287 µM | TGI [9]: 4.3 µM | GI50 [10]: 0.541 µM | TGI [10]: 1.89 µM

Oc1ccccc1/C=N\Nc1ccccc1
GI50 [1]: 10.2 µM | TGI [1]: 65.6 µM | GI50 [2]: 3.19 µM | TGI [2]: 25.4 µM | GI50 [3]: 4.16 µM | TGI [3]: 26.4 µM | GI50 [4]: 21.7 µM | TGI [4]: > 100 µM | GI50 [5]: 4.06 µM | TGI [5]: > 100 µM | GI50 [6]: 3.41 µM | TGI [6]: > 100 µM | GI50 [7]: 13.7 µM | TGI [7]: 95 µM | GI50 [8]: 5.92 µM | TGI [8]: 21.3 µM | GI50 [9]: 1.73 µM | TGI [9]: 82.9 µM | GI50 [10]: 3.59 µM | TGI [10]: 19.8 µM
